According to PubChem BioAssay AID698 (NMMLSC, 2007):
The source made the active and inactive calls. No rule for the calls is given here.

Biological target: N-formyl peptide receptor 2 (Homo sapiens) (UniProt P25090)
Experiment: inhibition of ligand-evoked FPRL1 calcium flux – cell-based, calcium response, confirmation (AID 698)
Conditions: FPRL1-expressing cells, ligand-induced calcium response, antagonist mode; active compounds read high; concentration not given here

Sequence of N-formyl peptide receptor 2 (Homo sapiens) (P25090 whole entry, looked up): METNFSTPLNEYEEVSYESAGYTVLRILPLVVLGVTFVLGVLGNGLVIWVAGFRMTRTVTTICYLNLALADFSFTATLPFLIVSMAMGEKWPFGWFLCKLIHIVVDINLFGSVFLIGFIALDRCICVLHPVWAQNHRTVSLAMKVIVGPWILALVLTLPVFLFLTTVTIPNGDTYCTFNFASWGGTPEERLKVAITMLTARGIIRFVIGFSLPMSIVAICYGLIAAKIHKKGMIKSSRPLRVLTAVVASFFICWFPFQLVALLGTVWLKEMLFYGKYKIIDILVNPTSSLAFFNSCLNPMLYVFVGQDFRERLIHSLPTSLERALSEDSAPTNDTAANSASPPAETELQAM

| SMILES | inhibition |
| --- | --- |
| CC(=O)OCCNc1cc(N2CCN(C)CC2)c2noc3c2c1C(=O)c1ccccc1-3 | 93.4% |
| CCOc1cc(C(=O)NCc2nnc(SCC(=O)OC)n2C)cc(OCC)c1OCC | 0% (inactive) |
| COc1ccc(-c2cn3cccnc3n2)cc1NC(=O)C1CC1 | 98.1% |

Next, values leading:

| inhibition | SMILES |
| --- | --- |
| 96.3% | COc1ccc(-c2cc(C(F)(F)F)nc(N3CCN(Cc4ccccc4)CC3)n2)cc1OC |
| 0% (inactive) | O=C(O)CCCNc1cc(N2CCC3(CC2)OCCO3)c2noc3c2c1C(=O)c1ccccc1-3 |
| 69.5% (inactive) | Nc1ccc(Nc2ccccc2N)cc1 |
| 0% (inactive) | CCOC(=O)CSc1nnc(CNC(=O)c2cc(OCC)c(OCC)c(OCC)c2)n1C |
